Measured values from patent publication US5492905A, “1-bolizazepin-2,5-diones” (Zeneca Limited, priority 1992, dated 1996).

Key:
[1] = system: neuronal damage in the hippocampus; assay: gerbil ischemic model (bilateral carotid occlusion), neuroprotection; assay type: in vivo, Mongolian gerbils; settings: dosed twice with 20 mg/kg body weight ip (e.g. 45 min before and 5 min after occlusion); 10 min occlusion; brains taken after 4 days
Procedure: When testing in vivo using the gerbil ischemic model, adult female Mongolian gerbils (50-70 g) are anesthetized with 2 to 3% halothane. The bilateral common carotid arteries at the neck are exposed and occluded with microaneurysm clips. After 10 min (unless specified), the clips are removed and the blood flow through the carotid arteries is restored and the skin is sutured. Test compounds are administered intraperitoneally both pre- and post-occlusion, for example 45 minutes before and 5 minutes after occlusion of the carotid arteries. Sham-operated animals are treated in the same manner except that the arteries are not clamped. Gross behavioral observations along with motor activity are recorded for 2 hr on the first (24 hr) day following the occlusion. After 4 days, subjects are sacrificed (decapitation), brains are removed, fixed, sectioned and stained with hematoxylin/eosin and cresyl violet.
The brain sections are rated for neuronal damage in the hippocampus using the following rating scale:
1=slight damage (up to 25%) - restricted CA1/subiculum border
2=moderate damage (up to 50%) - obvious damage, restricted to less than half of CA1 field
3=marked damage (up to 75%) - involving greater than half of CA1 field
4=damage extending beyond CA1 field
Results can be reported as the percentage of neuroprotection afforded by a particular dose and dosing regimen.
Sections (7 micron) are evaluated from each brain. Occasionally, asymmetrical damage may be noted and the rating assigned is the average score of the two sides. The average brain damage rating score for each group is recorded, and the damage scores of the drug treated group are compared to the vehicle-treated group using Wilcoxcon-Rank Sum test.

[2] = biological target: T1, glycine receptor of the NMDA receptor complex (Rattus norvegicus, UniProt P35439); assay: [3H]-glycine binding assay; design: species or system Sprague-Dawley rats; settings: 20 nM [3H]-glycine, rat neuronal synaptic membranes (cortices and hippocampi), pH 7.1, 30 min, 4° C.
T1 construct: neuronal synaptic membranes are prepared from adult (about 250 g) male Sprague-Dawley rats; from tissue; host or cells: synaptic membranes of cortices and hippocampi of adult male Sprague-Dawley rats
Procedure: The actions of compounds of formula I as antagonists at the glycine receptor of the NMDA receptor complex can be shown by standard tests such as the [^3 H]-glycine binding assay, by functional assays in vitro such as tests for measuring glutamate evoked contractions of the guinea pig ileum, and by tests in vivo such as ischemia induced by carotid occlusion in the gerbil model.
In the [^3 H]-glycine binding assay, neuronal synaptic membranes are prepared from adult (about 250 g) male Sprague-Dawley rats. Freshly dissected cortices and hippocampi are homogenized in 0.32M sucrose (110 mg/mL). Synaptosomes are isolated by centrifugation (1000 xg, 10 min), the supernatant is pelleted (20,000 xg, 20 min) and resuspended in double-distilled water. The suspension was centrifuged for 20 minutes at 8,000 xg. The resulting supernatant and buffy coat are washed twice (48,000 xg, 10 mins, resuspension in double-deionized water). The final pellet is quickly frozen (dry ice ethanol bath) under double-deionized water and stored at -70 ° C. […]
For [^3 H]-glycine binding at the N-methyl-D-aspartate receptor, 20 nM [^3 H]-glycine (40-60 Ci/mmol, New England Nuclear, Boston, Mass.) is incubated with the membranes suspended in 50 mM tris (hydroxymethyl)aminomethane citrate, pH 7.1 for 30 minutes at 4° C. […] Radioactivity is estimated by liquid scintillation counting. […]

IC50 [2] [µM] | Compound | neuroprotection (relative to sham-operated control) [1]
– | O=c1[nH]c2cc(Cl)ccc2c(=O)cc1NCCc1ccccc1 [Example 6, 8-Chloro-2,5-dioxo-3-phenethylamino-2,5-dihydro-1H-benz[b]azepine] | about 43%
~470 | O=c1[nH]c2cc(Cl)ccc2c(=O)cc1N1CCCC1 [Example 12] | about 62%
~43 | O=c1[nH]c2cc(Cl)ccc2c(=O)cc1NC[C@H](O)[C@@H](O)[C@H](O)[C@H](O)CO [Example 19, 8-Chloro-3-(D-glucamino)-2,5-dioxo-2,5-dihydro-1H-benz[b]azepine] | about 80%
